Data as given in patent publication US20070078172A1, “MAO-B INHIBITORS USEFUL FOR TREATING OBESITY” (JENRIN DISCOVERY, priority 2005, published 2007).

Legend:
Plasma leptin = Plasma leptin levels by commercial radioimmunoassay kit; type: in vivo, rat; details: rats, 10.0 mg/kg orally once daily, end of 14 week study, vs control
Protocol: (§1) Single-housed rats weighing 230-350 grams at the start of the experiment were provided free access to laboratory rodent chow pellets and tap water. Rats were divided into two groups, eight rats per group, matched for food intake and body weight over a two week baseline period. […] The second group of rats (control rats) was similarly administered drug vehicle (0.25% methyl cellulose solution). Body weight and food intake were measured once a week for 14 weeks.
At the end of the experiment, rats were killed by exposure to carbon dioxide. Blood was collected by cardiac puncture, and rats were shaved and eviscerated. Retroperitoneal white adipose tissue, epidydimal white adipose tissue, adrenal gland, liver, kidney and testes were rapidly dissected and weighed. Plasma leptin levels were measured using a commercial radioimmunoassay kit.

[1] = Body weight and food intake in rats dosed for 14 weeks; type: in vivo, rat
Protocol: as §1

[2] = Terminal tissue and organ weights (fat pads, adrenal gland, liver, kidney, testes); details: 10.0 mg/kg orally once daily, end of 14 week study
[3] = Terminal carcass composition (lipid, water, fat free dry weight); type: in vivo, rat; details: 10.0 mg/kg orally once daily
Protocol: as §1
Terminal carcass composition was measured. Shaved, eviscerated rats were coarsely ground and dried to a constant weight at 70° C. Dehydrated carcasses were finely ground in a blender. Lipid was extracted from a homogeneous sample with petroleum ether. Water and lipid contents were determined gravimetrically, and the remaining carcass component was termed fat free dry weight.

C#CCN(C)[C@H](C)Cc1ccccc1 [L-selegiline]
plasma leptin levels reduced (Plasma leptin): 41%
lower weight gain compared to control rats ([1]; 10.0 mg/kg L-selegiline hydrochloride orally by gavage once daily, 14 week study): 14%
weight gain less than untreated counterparts ([1]; 10.0 mg/kg orally once daily, 14 week study): approximately 34 g
food intake versus control group ([1]; 10.0 mg/kg orally once daily, 14 weeks): comparable
epidydimal fat pad weighed less than in control rats [2]: 23%
retroperitoneal fat pad weighed less than in control rats [2]: 27%
weight of non-fat organs (adrenal gland, liver, kidney, testes) ([2]; rats): did not weigh less
adipose tissue gain less than that of untreated control rats ([3]; 14 weeks): 94%
share of the overall 34 gram weight loss accounted for by body fat reduction ([3]; rats, 14 weeks): 94%
lean body mass ([3]; rats, terminal carcass): no reduction
whole carcass water content ([3]; rats, terminal carcass): no reduction
